Reference: patent US12281180B2, “Peptoid-peptide macrocycles, pharmaceutical compositions and methods of using the same” (New York University, priority 2018, dated 2025)
Numbered stars: 1 amine (or outer) side, 2 acyl side, 3 side chain; on linkers, the order of the positions; unused ones are H or OH. Square brackets hold non-standard residues; d marks the D form. Peptide text beside a SMILES is read from it. N(2-(2-PhOPh)Et)Gly = O=C(O)CNCCc1ccccc1Oc1ccccc1; Gly(N-3,5-(OMe)2-Ph) = COc1cc(NCC(=O)O)cc(OC)c1; X1 = COc1ccc([C@H](C)N(CC(=O)[*:2])[*:1])cc1; N((CH2)3OiPr)Gly = CC(C)OCCCNCC(=O)O

Assays:
[1] = system: Wnt signaling in zebrafish embryos; experiment: Zebrafish phenotypic assay of Wnt signaling (eye development); type: in vivo
Text: Rescue of eye development in Wnt-activated zebrafish embryos by the hit oligomer macrocycle—To evaluate the efficacy of 13 in vivo, a zebrafish model was utilized. The relevance of the model for our studies is that zebrafish embryos with Wnt activating mutations in the AXIN gene, a component of the β-catenin destruction complex, fail to develop eyes or a forebrain. The phenotype can be recapitulated by treatment with an inhibitor (termed BIO) for another β-catenin destruction complex member, GSK3, in embryos at 6 hours post-fertilization (hpf). It would then be anticipated that 13 inhibits the chemically over-activated Wnt signal, and potentially rescue eye development. To test this compound BIO was added to zebrafish embryos at 6 hpf with and without 13 as described in FIG. 10A.
Zebrafish Experiments The zebrafish phenotypic assay was conducted using wildtype zebrafish embryos seeded into a 96 well round bottom plate in 50 μl of blue zebrafish embryo media. At 50% epiboly, roughly 5.5 hours post fertilization, 50 ul of 30 μM cyclic peptoid compound was added. About 30 minutes later at shield stage, 50 μl 6 nM (3×) BIO was added. The embryos were then visualized for the presence of eyes and imaged at 30 hours post fertilization.

Wnt signaling pathway = experiment: TOP-Flash Wnt luciferase reporter assay; type: cell-based; details: for IC50: TOP-Flash LNCaP-abl cells, siAPC 24 h then 24 h compound, read-out: IC50 for Wnt luciferase inhibition
Procedure: The macrocycles were evaluated for their ability to inhibit the Wnt signaling pathway in cell culture. The macrocycles were administered at a concentration of 10 micromolar, and the activity was monitored with a luciferase reporter assay responsive to signaling through the Wnt pathway. […] The macrocycles were also observed to exert minimal cellular toxicity at the 10 micromolar concentration. […] Cells were incubated with 5 μM of peptoid macrocycles prior to co-IP.
(§1) Compound testing and identification of a hit compound—Using a TOP-Flash Wnt luciferase reporter, 12 oligomers identified from in silico modeling for inhibitory activity (FIG. 6A) were tested. At […] concentration, all compounds had some level of Wnt inhibitory activity in cell culture, with varying degrees of efficacy. Also employed was a 3×-Androgen Response Element (ARE) luciferase reporter to measure the effect on AR activity. […] FIG. 2B depicts the predicted structure and contacts of the β-catenin: 13 complex.

[2] = molecular target: T1, β-catenin:TCF4 protein interaction (Homo sapiens, UniProt P35222); experiment: Co-immunoprecipitation of myc-TCF4 and endogenous β-catenin in HEK293 cells; type: cell-based; details: 10 μM, 48 hour treatment
T1 construct: endogenous in cells; host or cells: HEK293 (β-catenin endogenous; myc-TCF4 transfected from addgene #32738)
T1 sequence (P35222 2-781 limits assumed): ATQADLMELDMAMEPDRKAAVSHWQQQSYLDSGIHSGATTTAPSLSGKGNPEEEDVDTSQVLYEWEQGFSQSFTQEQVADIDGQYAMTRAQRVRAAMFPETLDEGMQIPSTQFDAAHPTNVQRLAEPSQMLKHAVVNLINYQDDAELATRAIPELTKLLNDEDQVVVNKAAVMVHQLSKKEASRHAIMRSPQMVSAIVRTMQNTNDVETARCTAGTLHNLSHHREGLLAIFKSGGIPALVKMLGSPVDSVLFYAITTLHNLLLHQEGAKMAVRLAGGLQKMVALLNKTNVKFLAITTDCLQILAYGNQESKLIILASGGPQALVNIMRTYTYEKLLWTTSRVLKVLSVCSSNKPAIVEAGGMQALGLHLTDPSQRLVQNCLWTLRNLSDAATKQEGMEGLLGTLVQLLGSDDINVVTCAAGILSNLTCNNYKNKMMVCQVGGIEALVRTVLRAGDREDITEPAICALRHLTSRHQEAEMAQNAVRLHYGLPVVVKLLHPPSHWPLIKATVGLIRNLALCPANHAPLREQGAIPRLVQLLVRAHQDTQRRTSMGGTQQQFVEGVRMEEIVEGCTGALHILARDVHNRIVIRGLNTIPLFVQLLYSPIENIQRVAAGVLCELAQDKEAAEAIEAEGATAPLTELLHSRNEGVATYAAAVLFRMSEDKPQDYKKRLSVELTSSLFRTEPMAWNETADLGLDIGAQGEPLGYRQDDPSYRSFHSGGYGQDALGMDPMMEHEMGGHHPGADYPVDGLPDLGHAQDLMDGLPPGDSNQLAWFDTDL
Procedure: HEK293 cells were transiently transfected with a plasmid expressing full length, myc-tagged TCF4.
Cell Culture LNCaP-abl and LNCaP-95 cells were cultured in indicator free RPMI 1640 media (Life) supplemented with 10% charcoal stripped FBS, 1% penn/strep, and 1% L-Glutamine. HEK-293 Cells were cultured in DMEM media (Life) supplemented with 10% FBS and 1% penn/strep. Luciferase assays were conducted using stably transfected TOP-flash and 3×ARE LNCaP-abl cell lines. For the Wnt pathway, TOP-Flash LNCaP-abl cells were treated with siAPC for 24 hours followed by 24 hours treatment with compound. For the AR-pathway, 3×ARE LNCaP-abl cells were treated for 48 hours with compound, with the addition of R1881 for the final 8 hours. Both were measured using the ONE-Glo detection kit (Promega) and reported data is standardized to the cell-titer control values. Co-immunoprecipitation was carried out using HEK293 cells transfected with either myc-TCF (addgene #32738) or myc-TCF dominant negative (addgene #32739) followed by 48 hours of treatment with compound. Cells were lysed using trition lysis buffer and 1 mg total protein was incubated overnight at 4 C with 40 μl anti-cMyc magnetic beads (Thermo). […] After 5 days of treatment the cell viability was measured with the CellTiter-Fluor Cell Viability Assay (Promega) and data is reported standardized to DMSO control.

AR signaling = experiment: 3x-Androgen Response Element (ARE) luciferase reporter assay; type: cell-based; details: for IC50: 3xARE LNCaP-abl cells, 48 h compound, read-out: IC50 for inhibition of the AR luciferase reporter
Procedure: as §1

[3] = molecular target: β-catenin:TCF4 interaction (Homo sapiens, UniProt P35222); details: read-out: IC50 for inhibition of β-catenin binding to TCF4 N-terminal β-catenin binding domain; 5 nM His6-β-catenin
[4] = molecular target: T2, β-catenin:TCF family interaction (Homo sapiens, UniProt P35222); experiment: Two-hybrid like assay of β-catenin:TCF family member interactions; type: cell-based
T2 sequence (P35222 1-781): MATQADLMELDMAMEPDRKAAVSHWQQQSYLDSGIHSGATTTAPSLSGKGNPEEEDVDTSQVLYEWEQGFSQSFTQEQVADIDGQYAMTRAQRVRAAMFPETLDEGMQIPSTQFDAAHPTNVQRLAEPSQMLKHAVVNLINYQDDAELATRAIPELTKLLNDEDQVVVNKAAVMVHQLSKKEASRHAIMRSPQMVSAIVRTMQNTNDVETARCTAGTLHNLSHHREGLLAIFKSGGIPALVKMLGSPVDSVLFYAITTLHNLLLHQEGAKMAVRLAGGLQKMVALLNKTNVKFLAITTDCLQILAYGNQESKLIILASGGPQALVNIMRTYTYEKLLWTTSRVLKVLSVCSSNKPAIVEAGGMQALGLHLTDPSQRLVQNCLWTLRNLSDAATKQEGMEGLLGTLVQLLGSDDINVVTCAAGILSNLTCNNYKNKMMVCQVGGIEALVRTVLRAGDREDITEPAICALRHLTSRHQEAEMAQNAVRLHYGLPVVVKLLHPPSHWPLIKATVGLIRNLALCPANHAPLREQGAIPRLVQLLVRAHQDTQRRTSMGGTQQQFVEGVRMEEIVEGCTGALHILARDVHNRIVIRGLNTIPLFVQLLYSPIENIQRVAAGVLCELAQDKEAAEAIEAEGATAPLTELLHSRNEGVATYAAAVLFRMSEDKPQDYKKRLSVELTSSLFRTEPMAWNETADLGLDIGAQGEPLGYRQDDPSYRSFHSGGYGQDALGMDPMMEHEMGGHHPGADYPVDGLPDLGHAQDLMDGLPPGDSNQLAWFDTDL

[5] = molecular target: T3, E-cadherin:β-catenin interaction (Homo sapiens, UniProt P35222); experiment: Two-hybrid like assay, E-cadherin with β-catenin; type: cell-based
T3 sequence (P35222 1-781): T2 sequence (P35222 1-781)

LNCaP-abl spheroids = experiment: Spheroid 3D cell culture (PrestoBlue viability, spheroid area); type: cell-based
Procedure: The effects on spheroid formation and growth were evaluated following treatment with DMSO, 13, or linear 13 administered at the time of seeding at low cell density in a 384 well plate. In a separate experiment, to test the impact on pre-formed spheroids, cells were treated five days after initial seeding. Spheroids from both experiments were grown for 22 days, with compound refreshed on days 5, 9, 13, 16, and 20. […] PrestoBlue was used to measure cell viability on day 22 (FIG. 9B). […] FIG. 9C-F depicts spheroid area over time based on size measurements from the images taken throughout the experiment.
Spheroid 3D Cell Culture LNCaP-abl cells were seeded into 384 well ultra-low attachment plates (Corning), 1000 cells/well. Varying concentrations of compound were added either on the same day as seeding or on day 5. Media was changed every 3-4 days using a Biotek automated media exchanger. Images were taken using an ArraySca VTI (Thermo) on days 5, 9, 13, 16, 20, and 22. A final viability measurement was taken on day 22 using PrestoBlue reagent (Thermo).

[6] = system: LNCaP-abl and LNCaP-95 cells; experiment: RT-qPCR of endogenous Wnt and AR target genes; type: cell-based; details: 10 μM, 24 hours
Procedure: These cell lines were derived from androgen-sensitive LNCaP cells, and passaged in androgen-deprived media to mimic the development of castration resistance in patient tumors. mRNA from LNCaP-abl and LNCaP-95 cells treated with DMSO (vehicle) was isolated, 10 μM 13 and linear 13 for 24 hours to check the expression of endogenous Wnt and AR target genes (FIG. 8A). […] AR-V7 is particularly challenging to target as most AR antagonists target the ligand binding domain.
Cell Culture LNCaP-abl and LNCaP-95 cells were cultured in indicator free RPMI 1640 media (Life) supplemented with 10% charcoal stripped FBS, 1% penn/strep, and 1% L-Glutamine. HEK-293 Cells were cultured in DMEM media (Life) supplemented with 10% FBS and 1% penn/strep. Luciferase assays were conducted using stably transfected TOP-flash and 3×ARE LNCaP-abl cell lines. For the Wnt pathway, TOP-Flash LNCaP-abl cells were treated with siAPC for 24 hours followed by 24 hours treatment with compound. For the AR-pathway, 3×ARE LNCaP-abl cells were treated for 48 hours with compound, with the addition of R1881 for the final 8 hours. Both were measured using the ONE-Glo detection kit (Promega) and reported data is standardized to the cell-titer control values. Co-immunoprecipitation was carried out using HEK293 cells transfected with either myc-TCF (addgene #32738) or myc-TCF dominant negative (addgene #32739) followed by 48 hours of treatment with compound. Cells were lysed using trition lysis buffer and 1 mg total protein was incubated overnight at 4 C with 40 μl anti-cMyc magnetic beads (Thermo). The beads were washed 3× with lysis buffer then boiled in 2× sample loading dye. SDS-PAGE and western blotting were performed using anti-myc (CST 2276) and anti-β-catenin (CST 8480). RT-qPCR was performed using RNA isolated with the RNEasy kit (Qiagen) from LNCaP-abl and LNCaP-95 cells after 24 hour treatment with 10 μM compound. The Verso cDNA synthesis kit (Thermo) with 1 μg total RNA was used, and qPCR data was collected using Fast SYBR Green Master Mix on a QuantiStudio 6 Flex (Life Technologies). 2D proliferation assays were conducted using 384 well plates seeded with 2000 cells/well LNCaP-abl or LNCaP-95 cells. After 5 days of treatment the cell viability was measured with the CellTiter-Fluor Cell Viability Assay (Promega) and data is reported standardized to DMSO control.

[7] = 3 additional independent experiments, each
[8] = first experiment, eight fish, BIO added at 6 hpf with or without 13

**Q.** `O=C1Nc2cc(Br)ccc2/C1=C1/Nc2ccccc2/C1=N\O` [BIO, reference compound] was tested. Which “Fish that developed eyes” value [1, 7] did it give?
**A.** 0/8

**Q.** What about the “Fish that developed eyes” value [1, 8] of the same molecule?
**A.** one of the eight fish

**Q.** What does the source list for `COc1ccc([C@H](C)N2CC(=O)N[C@H](C)C(=O)N(CCc3ccccc3Oc3ccccc3)CC(=O)N(c3cc(OC)cc(OC)c3)CC(=O)N(CCCOC(C)C)CC(=O)N([C@@H](C)c3ccc(OC)cc3)CC2=O)cc1` [Compound 13] (cyclo([dA][N(2-(2-PhOPh)Et)Gly][Gly(N-3,5-(OMe)2-Ph)][N((CH2)3OiPr)Gly][X1][X1]))?
**A.** Wnt inhibitory activity, TOP-Flash Wnt luciferase reporter (Wnt signaling pathway; 10 µM concentration, cell culture): more effective; IC50 (Wnt signaling pathway): 0.105 µM; β-catenin:TCF interaction by co-immunoprecipitation, compared to DMSO [2]: decreased; Inhibition of AR signaling, 3x-ARE luciferase reporter (AR signaling): more effective; IC50 (AR signaling): 1.02 µM; Fish that developed eyes [1, 7]: 8/8; Fish that developed eyes [1, 8]: all the fish; IC50 [3]: 5.44 µM; Inhibition of TCF family interaction with β-catenin [4]: inhibits; Inhibition of E-cadherin interaction with β-catenin [5]: not; Spheroid growth / area over time (LNCaP-abl spheroids; 0.5 μM, added on day 0): slowed the growth; Spheroid formation / area over time (LNCaP-abl spheroids; 20 μM, 10 μM, 5 μM, 2 μM and 1 μM, added on day 0 with seeding): prevented spheroid formation; Growth of preformed spheroids / area over time (LNCaP-abl spheroids; at or above 2 μM, treatment started at day 5): stalled the growth of preformed spheroids; Spheroid growth / area over time (LNCaP-abl spheroids; between 0.001 µM and 0.1 μM): little effect; AR mRNA [6]: decreased; Cyclin D1 mRNA [6]: decreased; FKBP5 mRNA [6]: decreased; PSA mRNA [6]: decreased; Transcription of AR splice variant AR-V7 [6]: decreased; Transcription of E-cadherin [6]: increased; cMYC mRNA [6]: decreased

**Q.** What does the source list for “NH2-D-Ala-N-mpp, N-dmp, N-ipp, N-Smpe, N-Smpe-OH [linear 13]”?
**A.** IC50 (Wnt signaling pathway): 3.27 µM; IC50 (AR signaling): 7.63 µM
